Data set [1] has as its target T1, cannabinoidergic CB1 receptors (Rattus norvegicus, UniProt P20272).
T1 construct: the brain in toto (cerebellum excluded) and the spleen were rapidly dissected and maintained in ice; from tissue; host or cells: rat brain (cerebellum excluded), membrane preparation
Put plainly: Radioreceptorial binding, [3H]-CP-55,940 competition, rat brain membranes. The following applies: rat brain membranes, 1 nM [3H]-CP55,940; read-out: CB1 (brain) Ki. The method, then:
(§1) The affinity of the synthesized compounds towards the cannabinoidergic CB1 and CB2 receptors was evaluated in vitro through radioreceptorial binding studies by utilizing the following method.
(§2) The receptorial binding technique allows indeed to establish if and with what affinity and specificity a determined compound binds itself to a particular receptor. To evaluate the possible affinity of a determined compound towards a particular receptor it is necessary to make to compete (in a particular preparation of the tissue in which those determined receptors are present) the compound to be tested with another compound whose affinity is known and whose molecule was rendered radioactive. […] The reading of the radioactivity present in the receptor-compound complex allows furthermore to calculate with extreme precision the amount of compound bound to the receptor. […] By repeating the same experimental scheme it is possible to evaluate the affinity of the compound towards other kinds of receptors and establish then the specificity degree.
(§3) Food and water were available ad libitum.
(§4) The animals were sacrificed by cervical dislocation, the brain in toto (cerebellum excluded) and the spleen were rapidly dissected and maintained in ice.
(§5) The tissue was homogenized in 15 volumes (weight/volume) of TME buffer (50 mM Tris, 1 mM EDTA e 3 mM MgCl2, pH 7.4) by an Ultra-Turrax and centrifuged for 10 minutes at 1086×g in a centrifuge cooled at 4° C. The resulting supernatant was centrifuged at 45,000×g for 30 min at 4° C. by using a Beckman SW41 rotor and the final pellet was resuspended in 50 volumes of TME.
(§6) The obtained membranes (50-80 μg of proteins) were incubated in the presence of 1 nM di[^3H]-CP55,940 for 1 h at 30° C. in a final volume of 0.5 ml of TME buffer containing 5 mg/ml of bovine serum albumin (BSA). The non specific binding was measured in the presence of CP55,940 at the 1 μM concentration.
(§7) All the experiments were carried out in polypropylene test tubes pretreated with Sigma-Cote (Sigma Chemical Co. Ltd., Poole, UK) to reduce the non specific binding.
(§8) For the building of the competitive inhibition binding curves eight different concentrations of each compound were used.
(§9) Incubation was interrupted by addition of TME buffer (at 4° C.) containing 5 mg/ml of BSA and filtration under vacuum through Whatman GFC filters pretreated with 0.5% of polyethylamine (PEI) and by using a filtering apparatus (Brandell, Gaithersburg, Md., USA). Filters were washed 3 times with 5 ml of Tris HCl buffer (pH 7.4, 4° C.) containing 1 mg/ml of BSA and singly placed in plastic vials containing 4 ml of scintillating liquid (Ultima Gold MV, Packard).
(§10) The radioactivity present in the filters was measured by a scintillator spectrophotometer (Tricarb 2100, Packard, Meridien, USA).
(§11) The protein determination was carried out by the Bradford method by using the protocol and the reactants supplied by Bio-Rad (Milano, Italia).
(§12) The affinity of the compounds towards the CB1 and CB2 receptors was expressed in Ki terms.

For data set [2], the target named is T2, cannabinoidergic CB2 receptors (Rattus norvegicus, UniProt Q9QZN9).
T2 construct: the brain in toto (cerebellum excluded) and the spleen were rapidly dissected and maintained in ice; from tissue; host or cells: rat spleen, membrane preparation
T2 sequence (Q9QZN9 1-360): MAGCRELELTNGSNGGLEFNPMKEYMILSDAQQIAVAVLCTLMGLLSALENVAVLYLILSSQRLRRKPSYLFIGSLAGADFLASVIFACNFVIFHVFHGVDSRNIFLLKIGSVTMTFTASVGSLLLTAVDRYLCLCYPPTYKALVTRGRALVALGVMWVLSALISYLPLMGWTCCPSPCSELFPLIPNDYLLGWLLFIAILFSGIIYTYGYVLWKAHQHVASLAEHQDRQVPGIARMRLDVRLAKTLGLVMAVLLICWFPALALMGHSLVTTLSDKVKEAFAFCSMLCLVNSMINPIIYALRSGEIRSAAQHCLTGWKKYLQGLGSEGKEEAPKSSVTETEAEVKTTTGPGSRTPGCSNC
Briefly: Radioreceptorial binding, [3H]-CP-55,940 competition, rat spleen membranes. The following applies: rat spleen membranes, 1 nM [3H]-CP55,940; read-out: CB2 (spleen) Ki. The method, then: as §1, §2, §3, §4, §5, §6, §7, §8, §9, §10, §11, §12

Data set [3] relates to rat. The settings on record: for passage of the hemato-encephalic barrier: concluded from the hypothermia tests. As for the experimental part: The rectal temperature in the rat was determined by an electronic thermometer inserted at a 2 mm depth. The measurements were carried out on rats acclimated for one hour. […]
Each test was repeated on ten animals; the reported results are the average of the results obtained with the ten animals.

Data set [4] has as its system rat intestinal motility. Put plainly: Intestinal motility, Upper Gut Transit Test, compound alone. It is filed as in vivo. The settings on record: WIN 55,212-2 0.5 mg/kg alone, control 50%. As for the experimental part:
To evaluate the activity in vivo of the compounds (I) object of the present invention, functional tests were carried out directed to the evaluation of the effect of said compounds on the rat intestinal motility. It was indeed shown the involvement of the cannabinoidergic CB1 receptors in the intestinal motility regulation in rat (R. G. Pertwee et al; Br. J. Pharmacol.; 1996, 118, 2199-2205). In particular, the CB1 receptor agonists slacken the gastrointestinal motility; antagonist compounds of the same receptors have instead a prokinetic effect on the gastrointestinal transit (G. Colombo et al.; Eur. J. Pharmacol.; 1998, 344, 67-69; M. A. Casu et al.; Eur. J. Pharmacol.; 2003, 459, 97-105).
The evaluation of the constipating or prokinetic effect of the compounds was carried out by the Upper Gut Transit Test method on the basis of the procedure defined and ratified by Y. Nagakura et al.; Eur. J. Pharmacol.; 1996, 311, 67-72. The method, which allows to measure the motility of the stomach and of the first intestine tract (small or little intestine), requires: • the administration of the compound to be tested by i.p. route; • the administration of carmine red (marker not directly absorbable from the stomach) by intragastric route through a metal probe, after 20 minutes from the administration of the compound to be tested; • the rat sacrifice by cervical dislocation after a pre-fixed time (30 minutes) starting from the administration time; • the intestine explant from pylorus to the ileo-cecal valve; • the determination of the intestinal part crossed by the marker; • the data processing to determine the percentage of crossed part with respect to the total length of the small intestine.
With respect to the control (physiological solution or carrier wherein the compounds to be tested were solubilized or dispersed), the administration of CB1 agonist compounds implies an intestinal transit percentage reduction; an opposite effect is noticed in case of antagonist compounds. The latter are therefore capable to cancel the constipating effect of CB1 agonist compounds.
Each test was repeated on ten animals; the results reported in the Examples are the average of the results obtained with ten animals.

In data set [5] the test system is rat. Briefly: Hypothermia test in vivo, antagonism of the hypothermia induced by WIN 55,212-2. The settings on record: for Body temperature: WIN 55,212-2 (3 mg/kg) + compound (0.1-30 mg/kg).
Protocol: The rectal temperature in the rat was determined by an electronic thermometer inserted at a 2 mm depth. The measurements were carried out on rats acclimated for one hour. The rectal temperature was determined before and after (from 30 to 120 minutes) the i.p. administration of the compound to be tested.

The structures appear in SMILES notation. Like-named read-outs stand apart in the source and are kept apart here.

T1 sequence (P20272 whole entry): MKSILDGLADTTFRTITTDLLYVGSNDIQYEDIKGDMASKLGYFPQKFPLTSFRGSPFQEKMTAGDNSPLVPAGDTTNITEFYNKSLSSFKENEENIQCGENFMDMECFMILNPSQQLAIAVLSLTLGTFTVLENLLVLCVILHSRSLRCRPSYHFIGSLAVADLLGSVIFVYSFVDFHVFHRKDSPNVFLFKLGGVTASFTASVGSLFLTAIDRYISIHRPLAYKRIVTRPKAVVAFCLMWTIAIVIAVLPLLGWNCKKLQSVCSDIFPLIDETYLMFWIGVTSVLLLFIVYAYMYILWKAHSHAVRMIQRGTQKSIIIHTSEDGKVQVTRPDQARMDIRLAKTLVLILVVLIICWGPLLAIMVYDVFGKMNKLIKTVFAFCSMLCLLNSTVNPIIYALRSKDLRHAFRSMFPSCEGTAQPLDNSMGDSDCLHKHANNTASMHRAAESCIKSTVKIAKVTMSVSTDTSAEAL

Usually Ki stands for the dissociation constant of the complex between target and ligand, obtained from inhibition or displacement. By melting point is commonly meant the temperature of the solid-liquid transition. `Cc1cc2c(s1)CCc1c(C(=O)NN3CCCCCC3)nn(-c3ccc(Cl)cc3Cl)c1-2` [Example 3.11, N-homopiperidinyl-7-methyl-1-(2′,4′-dichlorophenyl)-4,5-dihydro-1H-thieno[2,3-g]indazol-3-carboxamide] showed a melting point of 229 °C. Besides, the Ki in data set [1] was found to be 57 ± 6 nM. In addition, the Ki in data set [2] came to 57.1 ± 5 nM.
With `O=C(NN1CCCCC1)c1nn(-c2ccc(Cl)cc2Cl)c2c1CCc1sc(Cl)cc1-2` [Example 3.1, N-piperidinyl-7-chloro-1-(2′,4′-dichlorophenyl)-4,5-dihydro-1H-thieno[2,3-g]indazol-3-carboxamide], the Ki in data set [1] stood at 44.3 ± 0.5 nM; in data set [2], 67.4 ± 6 nM.
As to `Cc1c(C(=O)c2cccc3ccccc23)c2cccc3c2n1[C@H](CN1CCOCC1)CO3` [WIN 55,212-2, reference compound], the Body temperature was 37.9 °C in data set [3] (WIN 55,212-2 3 mg/kg alone, 0 min from administration); 35.6 °C in data set [3] (WIN 55,212-2 3 mg/kg alone, 15 min); 33.8 °C in data set [3] (WIN 55,212-2 3 mg/kg alone, 30 min); 34.5 °C in data set [3] (WIN 55,212-2 3 mg/kg alone, 60 min); 35.8 °C in data set [3] (WIN 55,212-2 3 mg/kg alone, 90 min); 36.8 °C in data set [3] (WIN 55,212-2 3 mg/kg alone, 120 min). The “intestinal portion run by the marker with respect to the total intestine length” value in data set [4] is reported as 25%.
As for `O=C(NN1CCCCC1)c1nn(-c2ccc(Cl)cc2Cl)c2c1CCc1sc(Br)cc1-2` [Example 3.2, N-piperidinyl-7-bromo-1-(2′,4′-dichlorophenyl)-4,5-dihydro-1H-thieno[2,3-g]indazol-3-carboxamide], the Body temperature was determined as 38.0 °C in data set [5] (0 min); 38.0 °C in data set [5] (15 min); 34.0 °C in data set [5] (30 min); 34.5 °C in data set [5] (60 min); 35.8 °C in data set [5] (90 min); 36.8 °C in data set [5] (120 min). The Body temperature in data set [3] (compound alone 0.1-30 mg/kg i.p., 0 min) worked out at 38.0 °C; in data set [3] (compound alone 0.1-30 mg/kg i.p., 15 min), 37.9 °C; in data set [3] (compound alone 0.1-30 mg/kg i.p., 30 min), 38.0 °C; in data set [3] (compound alone 0.1-30 mg/kg i.p., 60 min), 38.2 °C; in data set [3] (compound alone 0.1-30 mg/kg i.p., 90 min) it was 38.1 °C; in data set [3] (compound alone 0.1-30 mg/kg i.p., 120 min), 37.9 °C. Also, the “antagonist activity towards the hypothermia induced by WIN 55,212-2, in words” value in data set [5] (compound i.p. 30 min before WIN 55,212-2 (3 mg/kg)) is “no variation of the body temperature with respect to the treatment with the only WIN 55,212-2”. Also, the Ki in data set [1] is 4.47 ± 0.14 nM; in data set [2], 36.8 ± 5 nM. The “passage of the hemato-encephalic barrier” value in data set [3] is recorded as “not able to pass the hemato-encephalic barrier”. Besides, the “effect on body temperature (hypothermia) of the compound alone, in words” value in data set [3] (i.p., compound alone, up to 120 min) is listed as “In none of the examined cases there was a reduction of the body temperature”.
As for `O=C(NN1CCCC1)c1nn(-c2ccc(Cl)cc2Cl)c2c1CCc1sc(Br)cc1-2` [Example 3.7, N-pyrrolidinyl-7-bromo-1-(2′,4′-dichlorophenyl)-4,5-dihydro-1H-thieno[2,3-g]indazol-3-carboxamide], the melting point worked out at 227 °C. Besides, the Ki in data set [1] turned out to be 126 ± 5 nM. Besides, the Ki in data set [2] came to 195 ± 27 nM.
`O=C(NN1CCCCCC1)c1nn(-c2ccc(Cl)cc2Cl)c2c1CCc1sc(Br)cc1-2` [Example 3.8, N-homopiperidinyl-7-bromo-1-(2′,4′-dichlorophenyl)-4,5-dihydro-1H-thieno[2,3-g]indazol-3-carboxamide] gave a melting point of 176 °C. Besides, the Ki in data set [1] stood at 9.6 ± 1.7 nM. Further, the Ki in data set [2] worked out at 60 ± 1 nM.
Turning to `Cc1cc2c(s1)CCc1c(C(=O)NN3CCCCC3)nn(-c3ccc(Cl)cc3Cl)c1-2` [Example 3.9, N-piperidinyl-7-methyl-1-(2′,4′-dichlorophenyl)-4,5-dihydro-1H-thieno[2,3-g]indazol-3-carboxamide], the melting point stood at 216 °C. The Ki in data set [1] was 7.88 ± 0.5 nM. For the same compound, the Ki in data set [2] is 55.1 ± 6 nM. Further, the “passage of the hemato-encephalic barrier” value in data set [3] is listed as “unable to pass the hemato-encephalic barrier”.

The values are drawn from patent US8106218B2, “Pharmaceutical compounds” (Neuroscienze Pharmaness S.C. A R.L., priority 2004, dated 2012).
